Patent publication US6589972B2, “β-phenylalanine derivatives as integrin antagonists” (Bayer Aktiengesellschaft, priority 1999, dated 2003)
Structures can show the parent of a compound that is named as a salt.

target: T1, αvβ3 from human A375 cells (Homo sapiens, UniProt P05106+P06756); assay: αvβ3 echistatin SPA binding assay; settings: purified αvβ3, labelled echistatin, WGA SPA beads
T1 construct: αvβ3 from human A375 cells was purified; endogenous in cells; host or cells: human A375 cells; receptor purified from the cells and used detergent-solubilised
Procedure: αvβ3 from human A375 cells was purified analogously to a procedure which was described by Wong et al. (Molecular Pharmacology, 50, 529-537 (1996)). 10 μl of αvβ3 (5 ng) in TBS pH 7.6, 2 mM CaCl2, 1 mM MgCl2, 1% n-octyl glucopyranoside (Sigma); 10 μl of test substance in TBS pH 7.6, 0.1% DMSO and 45 μl of TBS pH 7.6, 2 mM CaCl2, 1 mM MgCl2, 1 mM MnCl2 were in each case incubated at room temperature for 1 h. 25 μl of WGA SPA beads (Amersham, 4 mg/ml) and 10 μl of echistatin (0.1 μCi, Amersham, chloramine T-labelled) were then added in each case. After 16 hours at room temperature, the samples were measured in a scintillation measuring apparatus (Wallac 1450).

T1 sequence (P06756 31-889 limits assumed): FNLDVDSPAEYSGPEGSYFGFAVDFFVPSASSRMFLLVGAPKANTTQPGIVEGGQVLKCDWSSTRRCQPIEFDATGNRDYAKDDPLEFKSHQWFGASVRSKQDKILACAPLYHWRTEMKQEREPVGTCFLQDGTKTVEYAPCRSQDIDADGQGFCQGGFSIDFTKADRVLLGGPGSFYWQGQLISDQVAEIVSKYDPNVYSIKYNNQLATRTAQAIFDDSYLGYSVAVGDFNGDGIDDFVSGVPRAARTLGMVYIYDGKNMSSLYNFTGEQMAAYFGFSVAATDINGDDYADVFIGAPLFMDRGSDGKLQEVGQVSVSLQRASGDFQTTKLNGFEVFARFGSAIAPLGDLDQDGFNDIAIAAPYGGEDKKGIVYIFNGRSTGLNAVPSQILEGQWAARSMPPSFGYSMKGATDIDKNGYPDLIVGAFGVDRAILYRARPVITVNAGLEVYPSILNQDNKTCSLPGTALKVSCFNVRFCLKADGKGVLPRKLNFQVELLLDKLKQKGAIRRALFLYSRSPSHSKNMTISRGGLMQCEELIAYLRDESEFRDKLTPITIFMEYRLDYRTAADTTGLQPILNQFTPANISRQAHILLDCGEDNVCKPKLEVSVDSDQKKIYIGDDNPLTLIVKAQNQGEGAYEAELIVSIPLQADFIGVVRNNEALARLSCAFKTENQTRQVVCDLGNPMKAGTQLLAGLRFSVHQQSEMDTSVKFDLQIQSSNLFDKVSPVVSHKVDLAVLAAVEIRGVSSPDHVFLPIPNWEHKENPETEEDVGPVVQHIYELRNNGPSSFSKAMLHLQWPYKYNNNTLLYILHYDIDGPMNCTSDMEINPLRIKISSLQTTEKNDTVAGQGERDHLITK
T1 sequence (P06756 891-1048 partner limits assumed): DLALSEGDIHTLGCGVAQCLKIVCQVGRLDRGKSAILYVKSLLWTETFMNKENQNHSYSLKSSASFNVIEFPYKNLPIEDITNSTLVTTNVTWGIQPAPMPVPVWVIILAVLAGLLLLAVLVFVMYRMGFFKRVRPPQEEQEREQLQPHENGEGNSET
T1 sequence (P05106 27-788): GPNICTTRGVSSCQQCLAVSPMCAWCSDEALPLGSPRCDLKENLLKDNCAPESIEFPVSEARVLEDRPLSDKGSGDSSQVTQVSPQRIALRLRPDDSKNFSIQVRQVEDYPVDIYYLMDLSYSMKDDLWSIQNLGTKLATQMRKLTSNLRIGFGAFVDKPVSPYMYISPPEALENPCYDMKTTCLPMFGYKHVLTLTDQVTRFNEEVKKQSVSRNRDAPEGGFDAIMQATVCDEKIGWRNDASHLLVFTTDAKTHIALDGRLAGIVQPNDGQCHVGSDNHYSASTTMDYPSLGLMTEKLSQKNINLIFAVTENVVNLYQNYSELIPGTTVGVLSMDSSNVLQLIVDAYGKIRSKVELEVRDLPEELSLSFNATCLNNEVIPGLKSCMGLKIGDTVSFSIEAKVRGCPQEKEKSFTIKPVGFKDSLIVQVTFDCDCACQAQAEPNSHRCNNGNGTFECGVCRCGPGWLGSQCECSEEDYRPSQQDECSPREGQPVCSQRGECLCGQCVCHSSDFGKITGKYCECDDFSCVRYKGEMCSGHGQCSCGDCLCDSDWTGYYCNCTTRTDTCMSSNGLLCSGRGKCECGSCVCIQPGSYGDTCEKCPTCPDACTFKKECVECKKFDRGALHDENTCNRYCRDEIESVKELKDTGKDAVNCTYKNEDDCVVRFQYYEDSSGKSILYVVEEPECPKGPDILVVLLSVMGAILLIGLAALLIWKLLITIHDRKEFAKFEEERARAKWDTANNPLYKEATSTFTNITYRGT

Compound | IC50
N=C(N)Nc1cccc(S(=O)(=O)Nc2cccc(C(CC(=O)O)NC(=O)Cc3ccc(Cl)cc3Cl)c2)c1 (stereo not shown) [Example 5] | 72.4 nM
N=C(N)Nc1cccc(COc2cccc(C(CC(=O)O)NS(=O)(=O)c3ccccc3)c2)c1 (stereo not shown) [Example 8, 3-Benzenesulphonylamino-3-[3-(3-guanidino-benzyloxy)-phenyl]-propionic acid] | 33 nM
N=C(N)Nc1cccc(C(=O)Nc2cccc(C(CC(=O)O)NS(=O)(=O)c3ccccc3)c2)c1 (stereo not shown) [Example 2, 3-Benzenesulphonylamino-3-[3-(3-guanidino-benzoylamino)-phenyl]-propionic acid, trifluoroacetic acid salt] | 390 nM
N=C(N)Nc1cccc(S(=O)(=O)Nc2cccc(C(CC(=O)O)NS(=O)(=O)c3ccccc3)c2)c1 (stereo not shown) [Example 1, 3-Benzenesulphonylamino-3-[3-(3-guanidino-benzenesulphonylamino)-phenyl]-3-propionic acid, trifluoroacetic acid salt] | 19 nM
CCC(C(=O)NC(CC(=O)O)c1cccc(NS(=O)(=O)c2cccc(NC(=N)N)c2)c1)c1ccccc1 (mixture of isomers) [Example 7, 3-(3-[3-Guanidino-benzenesulphonylamino]-phenyl)-3-(2-phenylbutyrylamino)-propionic acid] | 115 nM
Cc1cc(C)c(CC(=O)NC(CC(=O)O)c2cccc(NS(=O)(=O)c3cccc(NC(=N)N)c3)c2)c(C)c1 (stereo not shown) [Example 3, 3-(3-[3-Guanidinobenzenesulphonylamino]-phenyl)-3-(2,4,6-trimethylphenylacetylamino)-propionic acid, trfiluoroacetic acid salt] | 153 nM
N=C(N)Nc1cccc(S(=O)(=O)Nc2cccc(C(CC(=O)O)NC(=O)c3ccccc3)c2)c1 (stereo not shown) [Example 4, 3-Benzoylamino-3-[3-(3-guanidino-benzenesulphonylamino)-phenyl]-propionic acid] | 12.8 nM
O=C(O)CC(NS(=O)(=O)c1ccccc1)c1cccc(NS(=O)(=O)c2cccc(NC3=NCCN3)c2)c1 (stereo not shown) [Example 9] | 0.295 nM
N=C(N)Nc1cccc(S(=O)(=O)Nc2cccc(C(CC(=O)O)NC(=O)CCc3ccccc3)c2)c1 (stereo not shown) [Example 6, 3-(3-[3-Guanidino-benzenesulphonylamino]-phenyl)-3-phenylpropionylamino-propionic acid] | 36.2 nM

target: αvβ3 receptor (Homo sapiens, UniProt P05106+P06756); assay: not given; settings: disclosed in WO98/00395; cited from earlier work
Sequence (P06756 31-889 limits assumed): as the sequence (P06756 31-889 limits assumed) above
Sequence (P06756 891-1048 partner limits assumed): as the sequence (P06756 891-1048 partner limits assumed) above
Sequence (P05106 27-788): as the sequence (P05106 27-788) above

Compound | IC50
CC1(C)C2CCC1(CS(=O)(=O)NC(Cc1ccc(OCCCC(=O)NC(=N)N)cc1)C(=O)O)C(=O)C2 (stereo not shown) [(I)] | 0.13 nM
